pIC50: −log10 of the molar value. Bounds are passed on as bounds.

Among the data in US9035074B2, “Pyrrolo[2,3-D]pyrimidine derivatives” (Pfizer Inc., priority 2013, dated 2015) are IC50 values, retold here.

In the experiment the target is JAK3 (Homo sapiens (Human), UniProt P52333). In words: JAK Caliper Enzyme Assay at 1 mM ATP (JAK3). In kind it is biochemical.
JAK3, sequence (P52333 whole entry, species assumed): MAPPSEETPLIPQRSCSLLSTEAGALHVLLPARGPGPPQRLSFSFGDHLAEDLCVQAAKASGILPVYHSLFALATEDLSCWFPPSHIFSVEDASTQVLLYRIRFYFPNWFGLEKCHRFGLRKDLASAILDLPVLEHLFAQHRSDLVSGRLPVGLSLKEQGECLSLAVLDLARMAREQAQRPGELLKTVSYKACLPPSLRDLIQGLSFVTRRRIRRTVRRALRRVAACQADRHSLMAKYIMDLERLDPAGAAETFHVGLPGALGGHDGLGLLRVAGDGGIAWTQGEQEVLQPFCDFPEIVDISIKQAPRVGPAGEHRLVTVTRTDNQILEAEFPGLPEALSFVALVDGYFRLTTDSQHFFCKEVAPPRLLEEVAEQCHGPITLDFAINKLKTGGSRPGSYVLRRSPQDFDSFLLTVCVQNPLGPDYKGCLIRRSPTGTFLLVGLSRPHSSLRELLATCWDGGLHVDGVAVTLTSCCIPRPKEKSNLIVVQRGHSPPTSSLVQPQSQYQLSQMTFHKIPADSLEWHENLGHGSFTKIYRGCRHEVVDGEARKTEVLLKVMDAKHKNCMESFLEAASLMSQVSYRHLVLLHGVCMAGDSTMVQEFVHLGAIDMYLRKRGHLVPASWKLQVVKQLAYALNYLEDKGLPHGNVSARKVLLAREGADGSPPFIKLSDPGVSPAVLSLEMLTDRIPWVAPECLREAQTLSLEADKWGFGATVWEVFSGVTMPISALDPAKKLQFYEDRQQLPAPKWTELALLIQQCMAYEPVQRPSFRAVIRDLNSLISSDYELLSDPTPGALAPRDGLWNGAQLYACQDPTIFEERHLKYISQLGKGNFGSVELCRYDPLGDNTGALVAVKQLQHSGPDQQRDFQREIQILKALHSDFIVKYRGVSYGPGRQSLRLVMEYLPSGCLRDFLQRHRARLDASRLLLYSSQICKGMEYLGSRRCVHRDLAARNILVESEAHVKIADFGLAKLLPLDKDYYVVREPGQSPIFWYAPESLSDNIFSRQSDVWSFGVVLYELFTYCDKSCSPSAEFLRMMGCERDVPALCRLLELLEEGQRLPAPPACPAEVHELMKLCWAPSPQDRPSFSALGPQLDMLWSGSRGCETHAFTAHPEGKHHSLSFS
In turn, `CN(c1ncnc2[nH]ccc12)[C@H]1C[C@@H](NS(=O)(=O)N2CC[C@@H](C#N)C2)C1` (mixture of isomers) [Example 17A, (R)- and (S)-3-Cyano-N-{cis-3-[methyl(7H-pyrrolo[2,3-d]pyrimidin-4-yl)amino]cyclobutyl}pyrrolidine-1-sulfonamide] showed a negative-log IC50 (pIC50) below 5.00.

On to `CN(c1ncnc2[nH]ccc12)[C@H]1C[C@@H](NS(=O)(=O)[C@H]2C[C@@](C)(CC#N)C2)C1` [Example 7A, cis-3-(cyanomethyl)-3-methyl-N-{cis-3-[methyl(7H-pyrrolo[2,3-d]pyrimidin-4-yl)amino]cyclobutyl}-cyclo-butanesulfonamide], for which the negative logarithm of the IC50 (pIC50) is below 5.00.

The compound `CN(c1ncnc2[nH]ccc12)[C@H]1C[C@@H](NS(=O)(=O)[C@H]2C[C@@H](CC#N)C2)C1` [Example 4A, cis-3-(cyanomethyl)-N-{cis-3-[methyl(7H-pyrrolo[2,3-d]pyrimidin-4-yl)amino]-cyclobutyl}cyclobutane-sulfonamide] showed a pIC50 below 5.00.

Consider `CN(c1ncnc2[nH]ccc12)[C@H]1C[C@@H](CS(=O)(=O)CCC2CC2)C1` [Example 32, N-(cis-3-{[(2-Cyclopropylethyl)sulfonyl]methyl}cyclobutyl)-N-methyl-7H-pyrrolo[2,3-d]pyrimidin-4-amine], for which the pIC50 is below 5.00.

Compound `CN(c1ncnc2[nH]ccc12)[C@H]1C[C@@H](NS(=O)(=O)[C@H]2C[C@](C)(CC#N)C2)C1` [Example 7B, trans-3-(cyanomethyl)-3-methyl-N-{cis-3-[methyl(7H-pyrrolo[2,3-d]pyrimidin-4-yl)amino]cyclobutyl}cyclo-butanesulfonamide] had a pIC50 below 5.00.

Regarding `CN(c1ncnc2[nH]ccc12)[C@H]1C[C@@H](NS(=O)(=O)[C@H]2C[C@H](CC#N)C2)C1` [Example 4B, trans-3-(cyanomethyl)-N-{cis-3-[methyl(7H-pyrrolo[2,3-d]pyrimidin-4-yl)amino]cyclobutyl}-cyclobutanesulfonamide], the pIC50 was below 5.00.

Regarding `CN(c1ncnc2[nH]ccc12)[C@H]1C[C@@H](CS(=O)(=O)N2CCC(F)(F)CC2)C1` [Example 25, N-(cis-3-{[(4,4-Difluoropiperidin-1-yl)sulfonyl]methyl}cyclobutyl)-N-methyl-7H-pyrrolo[2,3-d]pyrimidin-4-amine], the negative-log IC50 (pIC50) is below 5.00.

In the case of `CN(c1ncnc2[nH]ccc12)[C@H]1C[C@@H](NS(=O)(=O)N2C[C@H]3C[C@@H](C2)O3)C1` [Example 19, N-{cis-3-[Methyl(7H-pyrrolo[2,3-d]pyrimidin-4-yl)amino]cyclobutyl}-6-oxa-3-azabicyclo[3.1.1]heptane-3-sulfonamide], the negative logarithm of the IC50 (pIC50) was below 5.00.

With `CN(c1ncnc2[nH]ccc12)[C@H]1C[C@@H](NS(=O)(=O)C2CN(C3CC3)C2)C1` [Example 15, 1-Cyclopropyl-N-{cis-3-[methyl(7H-pyrrolo[2,3-d]pyrimidin-4-yl)amino]cyclobutyl}azetidine-3-sulfonamide], the pIC50 was below 5.00.

The compound `Cc1ncc(S(=O)(=O)N[C@H]2C[C@@H](N(C)c3ncnc4[nH]ccc34)C2)s1` [Example 38, 2-Methyl-N-{cis-3-[methyl(7H-pyrrolo[2,3-d]pyrimidin-4-yl)amino]cyclobutyl}-1,3-thiazole-5-sulfonamide] had a negative logarithm of the IC50 (pIC50) below 5.00.

For orientation: pIC50 means the IC50 on a negative log10 scale, so that one unit is a factor of ten. The low end stands for a large IC50, the high end for a small IC50.
